Several values for one entry are separate records, joined by “and”; a condition that tells them apart may be missing. Identical values can stand only once.

This note sets out measurements from patent publication US10010569B2, “Seaweed extracts, unsaturated fatty acids, and methods of treatment” (priority 2012, dated 2018).

Common to all, as to assay type: cell-based, human
Assay [1] concerns NQO1. The experiment in a line: NQO1 mRNA levels by qPCR in IMR-32 cells. The note with it: 1 μg/ml, 12 h. The procedure: (§1) Cultured cells were treated in the same way as described for the immunoblot experiments. After 12 h, total RNA was extracted using a commercial kit (RNeasy Mini Kit, Qiagen). For mice tissues, total RNA was extracted using TRIzol® reagent (Invitrogen) following the standard manufacturer's protocol.
(§2) cDNA synthesis and qPCR experiments for both cultured cells and mice tissues were performed following the same procedure. 2 μg of each RNA sample was reverse-transcribed into cDNA, which served as a template for TagMan® gene expression assays (Applied Biosystems). For each qPCR run, a total reaction volume of 25 μl was prepared consisting of 12.5 μl of TaqMan 2× universal master mix, 1.25 μl of a 20× TaqMan gene expression assay probe, 1 μl of cDNA and 10.25 μl of RNase-free sterile water. The reactions were dispensed into 96-well optical reaction plates (Applied Biosystems) and detected in an Applied Biosystems® 7300 Real-Time PCR System. The thermocycler program consisted of 2 min at 50° C., 10 min at 95° C., and 40 cycles of 95° C. for 15 s and 60° C. for 1 min. For normalization, GAPDH expression was used as an internal control for human cells (IMR-32) and β-actin for mice tissue samples.
In general terms: In qPCR the cycle at which signal appears reflects the starting amount.

The next assay has as its system ARE. The experiment in a line: ARE-luc reporter assay. The note with it: IMR-32 cells. Here is the method:
IMR-32 cells (33,000 cells/well) were transiently transfected with ARE-luc plasmid (100 ng/well) using FuGENE® HD (Roche Diagnostics) as a transfection reagent (1:3, w/v). The cells were dispensed into each well of a 96-well plate and incubated for 24 h. They were then treated with solvent control (DMSO or EtOH, 1%, v/v) or individual extracts/fractions/compounds for 24 h before ARE activities were detected by using BriteLite detection reagent (PerkinElmer). Relative fold activation for the treated samples over solvent control was reported. The ARE-luciferase (ARE-luc) reporter contains the ARE sequence of human NQO1: 5′-[…]-3′ [Moehlenkamp, J. D.; Johnson, J. A. Activation of antioxidant/electrophile-responsive elements in IMR-32 human neuroblastoma cells. Arch Biochem Biophys. 363:98-106; 1999].
(In general: Reporter assays use an easily measured gene product as a stand-in for the process of interest.)

The test system of the next assay is glutathione. In words: Glutathione assay in IMR-32 cells. The procedure:
Glutathione assays were performed following the manufacturer's protocol (Sigma). Briefly, IMR-32 cells (800,000 cells/well) were seeded into 6-well plates and incubated at 37° C. The cells were then treated with solvent control (EtOH, 0.5%, v/v) or compound 1 for the indicated period of time. At the end of each treatment, the cells were washed twice with Dulbecco's phosphate buffered saline (DPBS), harvested in 200 μl of DPBS, and pelleted at 600×g for 10 min at 4° C. After removal of DPBS, the cell pellet was deproteinized and re-suspended in 3 volumes of 5% sulfosalicylic acid solution (v/v). The suspension was frozen (liquid N2) and thawed (37° C. water bath) twice and then incubated at 4° C. for 5 min. The cell debris was spun down at 10,000×g for 10 min at 4° C. The supernatant was transferred to fresh tubes and used as glutathione stock. The concentration of the total glutathione (GSH+GSSG) was measured and compared with a standard curve of reduced glutathione (GSH).

Assay [2] deals with NQO1. The experiment in a line: Kinase inhibitor pre-treatment and NQO1 immunoblot. The note with it: 10 μg/ml, 24 h, 30 min pre-treatment with PD98059 50 μM. The procedure: (§3) IMR-32 cells (800,000 cells/well) were seeded into each well of 6-well plates. 24 h later, cells were treated with solvent control (EtOH, 0.5%, v/v) or fractions/compounds. After another 24 h, whole cell lysates were collected in PhosphoSafe buffer (Novagen) following the manufacturer's protocol and stored at −80° C. until analyzed. For each sample, the protein concentration was measured using a BCA assay kit (Pierce). Samples containing equal amount of total protein were separated by SDS-PAGE (NuPAGE® Novex® 4-12% Bis-Tris Mini gels, Invitrogen), transferred onto a PVDF membrane, and incubated overnight with the indicated primary antibodies at 4° C. on an orbital shaker. The membranes were then incubated with the corresponding secondary antibodies (HRP-linked) for 1 h at room temperature and detected with Supersignal Femto Western Blotting kit (Pierce). Anti-NQO1 (mouse) antibody was from Abcam; anti-β-actin (rabbit), anti-mouse-HRP, and anti-rabbit-HRP antibodies were from Cell Signaling Technology.
For assays in the presence of an antioxidant, the cells were pretreated with excess NAC (1 mM, pH 7.50) for 2 h before they were treated with solvent control or the compounds (see above). […]

In assay [3] the test system is NQO1. In words: NQO1 protein expression by immunoblot in IMR-32 cells. The note with it: 24 h. Here is the method: as §3
Background: A western blot detects proteins with antibodies after separation by electrophoresis.

In assay [4] the test system is NQO1. In words: RNA interference (NRF2 siRNA) and NQO1 immunoblot. The note with it: IMR-32 cells, NRF2 siRNA 48 h, then 24 h treatment. Here is the method: as §3
IMR-32 cells (600,000 cells/well) were seeded in 6-well plates and incubated at 37° C. for 24 h. […] The treated cells were then lysed in PhosphoSafe buffer and whole cell lysates analyzed by immunoblot (see above). […]

The next assay relates to NRF2. The experiment in a line: NRF2 mRNA levels by qPCR in IMR-32 cells. The note with it: 1-10 μg/ml, 12 h. Here is the method: as §1, §2
[5] abbreviates: 10 μg/ml, 24 h, over solvent control.
The mark [6] stands for this setting: 32 μg/ml, 24 h, over solvent control.

On to `CCCCCCCCCC(=O)/C=C/CCCCCC(=O)O` [Compound 1, 7(E)-9-keto-octadec-7-enoic acid], for which the “NQO1 mRNA level” value with NQO1 [1] was found to be 1.5 fold. In the assay with ARE (setting [5]), this compound returned an ARE activation of 17.6 fold. Further, in the assay with glutathione (at 16 h), the “glutathione level restored relative to basal level” value is reported as “more than 50%”. Besides, the “transient decrease of glutathione level” value in the assay with glutathione (until 8 h) is < 30% and ~30%. Moreover, the “glutathione level versus baseline” value in the assay with glutathione (up to 24 h) is listed as “stayed above baseline”. Further, the “NQO1 expression in the presence of a MAPK (MEK1) inhibitor” value with NQO1 [2] was “induced”. Also, the NQO1 protein expression result in the assay on NQO1 [3] is “detectable starting at 1 μg/ml and was the highest at 10 μg/ml”. In addition, the “NQO1 expression in NRF2-depleted cells” value in the assay with NQO1 [4] is on record as “virtually undetectable”. In addition, the “NRF2 mRNA levels” value in the assay with NRF2 is “remained unchanged”.

`CCCCCCCC(=O)/C=C/CCCCCC(=O)O` [Compound 2, 7(E)-9-keto-hexadec-7-enoic acid]: the ARE activation in the assay with ARE (setting [5]) stood at 2.8 fold; in the assay on ARE (setting [6]) it was 30.3 fold.

Regarding `CCCCCCCCCC(=O)/C=C/CCCCCC(N)=O` [Compound 3, 7(E)-9-keto-octadec-7-enamide], the ARE activation in the assay with ARE (setting [5]) worked out at 4.5 fold; in the assay with ARE (setting [6]), 13.2 fold.

In turn, `CC(C)(C)c1cc(O)ccc1O` [tBHQ, reference compound] showed an ARE activation in the assay with ARE (positive control, concentration not given) of 14.9 fold.
